These are literature values, as cited in paper PMC5548701, “Selective targeting of melanoma using N-(2-diethylaminoethyl) 4-[^18F]fluoroethoxy benzamide (4-[^18F]FEBZA): a novel PET imaging probe” (EJNMMI Research, 2017).

The test system of series [1] is B16F1 tumor. As to conditions: cited from earlier work; for intestinal uptake: mice bearing B16F melanoma tumor; for bone uptake: 2 h.
Details of series [2]: method as in PMID 27693672. As to conditions: 60–70 min; cited from earlier work.

With `CCN(CC)CCNC(=O)c1ccc(F)nc1` [MEL050], in series [1] (1 h), the intestinal uptake is 2.1 ± 0.3 %IA/g and the “F-18 uptake in B16F1 tumor” value is recorded as 8.4 ± 1.5 %IA/g. Further, in series [1], the bone uptake is given as 0.58 ± 0.05 %IA/g. In series [2], the “uptake in mouse brain from microPET imaging” value is 1.38 ± 0.40 %IA/g.
As to `CCN(CC)CCNC(=O)c1ccc([18F])cc1` [^18F-DAFBA, N-(2-diethylaminoethyl)-4-[18F]fluorobenzamide], in series [1] (1 h), the intestinal uptake was 3.04 ± 0.24 %IA/g. Also, the bone uptake in series [1] is 0.20 ± 0.06 %IA/g.
